# Laboratory results as given in the OligoGym collection.
# Oligonucleotides are written 5' to 3', each unit as a sugar letter and its base; * is a phosphorothioate linkage, no mark a phosphodiester; rarer units and linkages stand in square brackets, end groups in braces. Plain capitals give the bases only. d = 2'-deoxy (DNA); r = 2'-OH (RNA)
# Molecular target: UBE2H
# Assay: reporter assay of Huesken 2005
# Conditions: siRNA
# Further: test concentration or dose not given here.
row,Substance,normalised inhibition (eCFP-eYFP dual reporter) [%]
1,sense rCrGrCrCrArCrGrGrArGrGrArGrGrCrGrCrUrGdTdT / antisense rCrArGrCrGrCrCrUrCrCrUrCrCrGrUrGrGrCrGdTdA,66.8
2,sense rCrGrUrCrArGrGrArArCrUrGrUrGrUrGrUrCrUdTdT / antisense rArGrArCrArCrArCrArGrUrUrCrCrUrGrArCrGdCdT,99.9
3,sense rCrUrArUrGrArUrCrUrUrArCrCrArArUrArUrAdTdT / antisense rUrArUrArUrUrGrGrUrArArGrArUrCrArUrArGdAdG,110
4,sense rCrUrUrGrGrArCrArGrCrUrCrUrCrUrArUrGrAdTdT / antisense rUrCrArUrArGrArGrArGrCrUrGrUrCrCrArArGdTdT,81
5,sense rGrArArCrUrGrUrGrUrGrUrCrUrArGrArUrGrUdTdT / antisense rArCrArUrCrUrArGrArCrArCrArCrArGrUrUrCdCdT,98.4
6,sense rGrArArGrArArUrArCrArArGrCrArGrArArArAdTdT / antisense rUrUrUrUrCrUrGrCrUrUrGrUrArUrUrCrUrUrCdTdG,95.1
7,sense rGrArArUrArCrArArGrCrArGrArArArArUrUrAdTdT / antisense rUrArArUrUrUrUrCrUrGrCrUrUrGrUrArUrUrCdTdT,93.1
8,sense rGrArArUrUrUrGrUrArGrUrGrArArGrUrUrUrUdTdT / antisense rArArArArCrUrUrCrArCrUrArCrArArArUrUrCdAdT,96.7
9,sense rGrArCrGrCrUrGrCrArGrCrCrArUrGrUrArCrCdTdT / antisense rGrGrUrArCrArUrGrGrCrUrGrCrArGrCrGrUrCdAdC,55.3
10,sense rGrArGrGrUrUrArCrGrArUrCrCrUrGrGrGrArGdTdT / antisense rCrUrCrCrCrArGrGrArUrCrGrUrArArCrCrUrCdAdT,57.3
11,sense rGrArGrUrArCrArUrCrCrArGrArArArUrArCrGdTdT / antisense rCrGrUrArUrUrUrCrUrGrGrArUrGrUrArCrUrCdTdT,77.6
12,sense rGrArGrUrArUrGrGrArArArGrUrUrArGrArGrUdTdT / antisense rArCrUrCrUrArArCrUrUrUrCrCrArUrArCrUrCdCdG,83.6
13,sense rGrArUrArArArUrArCrCrCrUrUrUrCrArArArUdTdT / antisense rArUrUrUrGrArArArGrGrGrUrArUrUrUrArUrCdAdG,102
14,sense rGrArUrCrUrUrArCrCrArArUrArUrArUrUrUrGdTdT / antisense rCrArArArUrArUrArUrUrGrGrUrArArGrArUrCdAdT,78.3
15,sense rGrGrArGrGrArGrGrCrGrCrUrGrArArArGrArAdTdT / antisense rUrUrCrUrUrUrCrArGrCrGrCrCrUrCrCrUrCrCdGdT,91.9
16,sense rGrGrCrGrCrUrGrArArArGrArArCrArGrGrArAdTdT / antisense rUrUrCrCrUrGrUrUrCrUrUrUrCrArGrCrGrCrCdTdC,98.5

row,Substance,normalised inhibition (eCFP-eYFP dual reporter) [%]
1,sense rGrGrGrUrArCrCrGrGrGrGrArCrArGrCrUrCrAdTdT / antisense rUrGrArGrCrUrGrUrCrCrCrCrGrGrUrArCrCrCdTdC,71.9
2,sense rGrGrUrGrArCrGrCrUrGrCrArGrCrCrArUrGrUdTdT / antisense rArCrArUrGrGrCrUrGrCrArGrCrGrUrCrArCrCdAdT,91
3,sense rGrUrCrUrArGrArUrGrUrArArUrUrArArUrCrAdTdT / antisense rUrGrArUrUrArArUrUrArCrArUrCrUrArGrArCdAdC,106
4,sense rGrUrGrArArGrUrUrUrUrArUrGrGrArCrCrArCdTdT / antisense rGrUrGrGrUrCrCrArUrArArArArCrUrUrCrArCdTdA,63.8
5,sense rGrUrGrGrArCrCrUrArCrCrUrGrArUrArArArUdTdT / antisense rArUrUrUrArUrCrArGrGrUrArGrGrUrCrCrArCdTdC,77.9
6,sense rUrArCrCrArArUrArUrArUrUrUrGrArGrUrCrCdTdT / antisense rGrGrArCrUrCrArArArUrArUrArUrUrGrGrUrAdAdG,48.6
7,sense rUrArGrArUrGrUrArArUrUrArArUrCrArArArCdTdT / antisense rGrUrUrUrGrArUrUrArArUrUrArCrArUrCrUrAdGdA,46.5
8,sense rUrArUrArGrGrArUrUrCrArUrGrArArUrArArAdTdT / antisense rUrUrUrArUrUrCrArUrGrArArUrCrCrUrArUrAdGdA,67.9
9,sense rUrArUrCrCrUrArArCrCrCrCrArUrArGrArUrCdTdT / antisense rGrArUrCrUrArUrGrGrGrGrUrUrArGrGrArUrAdGdG,50.2
10,sense rUrCrArGrUrUrArUrUrGrGrCrCrUrArUrCrCrUdTdT / antisense rArGrGrArUrArGrGrCrCrArArUrArArCrUrGrAdGdG,66.6
11,sense rUrCrArUrCrGrArGrArGrUrArArArCrArUrGrAdTdT / antisense rUrCrArUrGrUrUrUrArCrUrCrUrCrGrArUrGrAdGdC,71.5
12,sense rUrGrArUrCrUrUrArCrCrArArUrArUrArUrUrUdTdT / antisense rArArArUrArUrArUrUrGrGrUrArArGrArUrCrAdTdA,68.4
13,sense rUrGrUrArCrCrUrCrCrArCrCrGrArCrCrArGrAdTdT / antisense rUrCrUrGrGrUrCrGrGrUrGrGrArGrGrUrArCrAdTdG,95.7
14,sense rUrGrUrArGrUrGrArArGrUrUrUrUrArUrGrGrAdTdT / antisense rUrCrCrArUrArArArArCrUrUrCrArCrUrArCrAdAdA,75.6
15,sense rUrUrArUrGrGrArCrCrArCrArArGrGrArArCrAdTdT / antisense rUrGrUrUrCrCrUrUrGrUrGrGrUrCrCrArUrArAdAdA,91.7

# Molecular target: RHOQ
# Assay: reporter assay of Huesken 2005
# Conditions: siRNA
row,Substance,normalised inhibition (eCFP-eYFP dual reporter) [%]
1,sense rArArArUrCrArArUrUrArArCrArUrArUrUrArGdTdT / antisense rCrUrArArUrArUrGrUrUrArArUrUrGrArUrUrUdAdT,46.2
2,sense rArArArUrGrArCrArGrCrCrUrUrArArArUrGrCdTdT / antisense rGrCrArUrUrUrArArGrGrCrUrGrUrCrArUrUrUdTdC,42.3
3,sense rArArArUrGrGrUrGrGrUrUrCrArCrArUrUrArAdTdT / antisense rUrUrArArUrGrUrGrArArCrCrArCrCrArUrUrUdCdT,85.8
4,sense rArArUrArUrArArGrCrArUrCrArCrCrUrUrCrCdTdT / antisense rGrGrArArGrGrUrGrArUrGrCrUrUrArUrArUrUdTdT,51.8
5,sense rArArUrGrCrUrCrArUrArUrCrArGrUrCrArCrAdTdT / antisense rUrGrUrGrArCrUrGrArUrArUrGrArGrCrArUrUdTdA,76
6,sense rArCrArCrUrArArArCrUrUrUrUrArUrArCrUrUdTdT / antisense rArArGrUrArUrArArArArGrUrUrUrArGrUrGrUdTdC,76.1
7,sense rArCrArGrArUrUrGrGrGrUrArArUrGrGrArArCdTdT / antisense rGrUrUrCrCrArUrUrArCrCrCrArArUrCrUrGrUdGdC,47.1
8,sense rArCrUrUrUrCrUrUrArUrUrUrArArUrUrUrUrGdTdT / antisense rCrArArArArUrUrArArArUrArArGrArArArGrUdTdA,43.6
9,sense rArGrArUrUrGrGrGrUrArArUrGrGrArArCrArCdTdT / antisense rGrUrGrUrUrCrCrArUrUrArCrCrCrArArUrCrUdGdT,72
10,sense rArGrGrArUrGrUrArCrUrGrUrCrUrUrGrUrUrGdTdT / antisense rCrArArCrArArGrArCrArGrUrArCrArUrCrCrUdAdG,81.7
11,sense rArUrArArArArUrUrGrArArArGrGrArArUrUrGdTdT / antisense rCrArArUrUrCrCrUrUrUrCrArArUrUrUrUrArUdCdT,36.4
12,sense rArUrArArArUrCrArArUrUrArArCrArUrArUrUdTdT / antisense rArArUrArUrGrUrUrArArUrUrGrArUrUrUrArUdAdC,38.4
13,sense rArUrArArUrGrGrArUrGrCrArUrCrArGrArUrAdTdT / antisense rUrArUrCrUrGrArUrGrCrArUrCrCrArUrUrArUdCdT,80.8
14,sense rArUrCrArGrUrCrArCrArArArUrCrUrArGrGrAdTdT / antisense rUrCrCrUrArGrArUrUrUrGrUrGrArCrUrGrArUdAdT,75.3
15,sense rArUrCrUrUrArUrGrUrArArCrUrUrUrCrUrUrAdTdT / antisense rUrArArGrArArArGrUrUrArCrArUrArArGrArUdTdC,59.1
16,sense rArUrGrGrArArCrArCrUrArArArCrUrUrUrUrAdTdT / antisense rUrArArArArGrUrUrUrArGrUrGrUrUrCrCrArUdTdA,82.1
17,sense rArUrGrGrArArUrCrUrUrArUrGrUrArArCrUrUdTdT / antisense rArArGrUrUrArCrArUrArArGrArUrUrCrCrArUdTdT,51.1
18,sense rArUrGrGrArUrGrCrArUrCrArGrArUrArArUrGdTdT / antisense rCrArUrUrArUrCrUrGrArUrGrCrArUrCrCrArUdTdA,82.5
19,sense rCrArArArUrCrUrArGrGrArUrGrUrArCrUrGrUdTdT / antisense rArCrArGrUrArCrArUrCrCrUrArGrArUrUrUrGdTdG,79.4
20,sense rCrArArGrArArArUrGrGrUrGrGrUrUrCrArCrAdTdT / antisense rUrGrUrGrArArCrCrArCrCrArUrUrUrCrUrUrGdGdA,84.9
21,sense rCrArCrArUrUrArArArGrUrArUrCrArUrGrGrCdTdT / antisense rGrCrCrArUrGrArUrArCrUrUrUrArArUrGrUrGdAdA,62.4
